Measurements from patent US20120122860A1, “SOLID FORMS OF SULFONAMIDES AND AMINO ACIDS” (Plexxikon, Inc., priority 2009, published 2012).

Columns and labels:
B-Raf = B-Raf (Homo sapiens, UniProt P15056); assay: Kinase activity assay, B-Raf; assay type: biochemical; conditions: read-out: activity toward kinase B-Raf, IC50
B-Raf V600E = B-Raf V600E (Homo sapiens, UniProt P15056, V600E); assay: Kinase activity assay, B-Raf V600E; assay type: biochemical; conditions: read-out: activity toward kinase B-Raf V600E, IC50
Chain of B-Raf V600E (P15056 whole entry V600E): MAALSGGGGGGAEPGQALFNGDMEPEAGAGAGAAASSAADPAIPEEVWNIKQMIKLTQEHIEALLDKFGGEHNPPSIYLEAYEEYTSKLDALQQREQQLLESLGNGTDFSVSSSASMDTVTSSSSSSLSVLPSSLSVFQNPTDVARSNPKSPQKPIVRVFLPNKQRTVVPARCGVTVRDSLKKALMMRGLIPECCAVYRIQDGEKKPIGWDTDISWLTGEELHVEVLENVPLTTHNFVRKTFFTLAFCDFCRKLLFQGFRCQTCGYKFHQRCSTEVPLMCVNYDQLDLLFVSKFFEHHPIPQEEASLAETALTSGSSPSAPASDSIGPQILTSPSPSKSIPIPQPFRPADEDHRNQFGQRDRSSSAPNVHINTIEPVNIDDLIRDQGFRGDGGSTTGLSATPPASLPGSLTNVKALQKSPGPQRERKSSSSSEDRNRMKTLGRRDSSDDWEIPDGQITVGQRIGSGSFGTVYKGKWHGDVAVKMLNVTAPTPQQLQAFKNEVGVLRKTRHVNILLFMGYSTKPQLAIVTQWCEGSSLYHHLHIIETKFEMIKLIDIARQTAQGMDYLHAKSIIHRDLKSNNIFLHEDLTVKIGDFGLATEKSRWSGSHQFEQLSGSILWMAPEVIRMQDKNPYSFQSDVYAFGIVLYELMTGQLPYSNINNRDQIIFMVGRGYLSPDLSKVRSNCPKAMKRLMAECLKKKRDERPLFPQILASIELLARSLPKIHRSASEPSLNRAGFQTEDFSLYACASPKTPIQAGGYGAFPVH

Fms = Fms (Homo sapiens, UniProt P07333); assay: Kinase activity assay, Fms
Chain of Fms (P07333 20-972): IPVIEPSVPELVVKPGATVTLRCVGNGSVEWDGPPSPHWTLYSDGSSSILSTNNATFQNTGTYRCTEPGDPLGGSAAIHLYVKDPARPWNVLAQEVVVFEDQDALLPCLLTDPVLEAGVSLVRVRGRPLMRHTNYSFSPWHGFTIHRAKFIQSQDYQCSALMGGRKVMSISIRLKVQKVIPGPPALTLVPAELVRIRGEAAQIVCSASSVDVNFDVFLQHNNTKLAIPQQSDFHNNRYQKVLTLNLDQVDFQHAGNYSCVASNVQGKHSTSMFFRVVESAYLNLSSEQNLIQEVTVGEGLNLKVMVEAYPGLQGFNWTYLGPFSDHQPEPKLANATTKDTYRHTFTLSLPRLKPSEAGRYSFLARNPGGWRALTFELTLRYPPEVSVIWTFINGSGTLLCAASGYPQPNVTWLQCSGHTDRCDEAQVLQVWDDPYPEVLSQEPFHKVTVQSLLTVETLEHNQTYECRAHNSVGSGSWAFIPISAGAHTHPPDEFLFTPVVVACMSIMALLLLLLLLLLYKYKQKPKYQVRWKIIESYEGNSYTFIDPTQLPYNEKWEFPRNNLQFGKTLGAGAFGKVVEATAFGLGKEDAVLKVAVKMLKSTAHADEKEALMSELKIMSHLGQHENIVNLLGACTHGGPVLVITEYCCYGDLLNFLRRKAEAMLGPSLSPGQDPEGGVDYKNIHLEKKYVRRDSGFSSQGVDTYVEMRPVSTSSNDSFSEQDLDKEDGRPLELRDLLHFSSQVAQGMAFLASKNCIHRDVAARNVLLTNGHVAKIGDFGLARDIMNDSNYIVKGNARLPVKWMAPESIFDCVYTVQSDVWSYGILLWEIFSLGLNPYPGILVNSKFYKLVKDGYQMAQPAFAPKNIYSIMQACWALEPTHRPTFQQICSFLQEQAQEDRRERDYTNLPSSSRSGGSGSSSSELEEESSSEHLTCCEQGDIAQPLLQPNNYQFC

Kdr = Kdr (Homo sapiens, UniProt P35968); assay: Kinase activity assay, Kdr
Chain of Kdr (P35968 20-1356): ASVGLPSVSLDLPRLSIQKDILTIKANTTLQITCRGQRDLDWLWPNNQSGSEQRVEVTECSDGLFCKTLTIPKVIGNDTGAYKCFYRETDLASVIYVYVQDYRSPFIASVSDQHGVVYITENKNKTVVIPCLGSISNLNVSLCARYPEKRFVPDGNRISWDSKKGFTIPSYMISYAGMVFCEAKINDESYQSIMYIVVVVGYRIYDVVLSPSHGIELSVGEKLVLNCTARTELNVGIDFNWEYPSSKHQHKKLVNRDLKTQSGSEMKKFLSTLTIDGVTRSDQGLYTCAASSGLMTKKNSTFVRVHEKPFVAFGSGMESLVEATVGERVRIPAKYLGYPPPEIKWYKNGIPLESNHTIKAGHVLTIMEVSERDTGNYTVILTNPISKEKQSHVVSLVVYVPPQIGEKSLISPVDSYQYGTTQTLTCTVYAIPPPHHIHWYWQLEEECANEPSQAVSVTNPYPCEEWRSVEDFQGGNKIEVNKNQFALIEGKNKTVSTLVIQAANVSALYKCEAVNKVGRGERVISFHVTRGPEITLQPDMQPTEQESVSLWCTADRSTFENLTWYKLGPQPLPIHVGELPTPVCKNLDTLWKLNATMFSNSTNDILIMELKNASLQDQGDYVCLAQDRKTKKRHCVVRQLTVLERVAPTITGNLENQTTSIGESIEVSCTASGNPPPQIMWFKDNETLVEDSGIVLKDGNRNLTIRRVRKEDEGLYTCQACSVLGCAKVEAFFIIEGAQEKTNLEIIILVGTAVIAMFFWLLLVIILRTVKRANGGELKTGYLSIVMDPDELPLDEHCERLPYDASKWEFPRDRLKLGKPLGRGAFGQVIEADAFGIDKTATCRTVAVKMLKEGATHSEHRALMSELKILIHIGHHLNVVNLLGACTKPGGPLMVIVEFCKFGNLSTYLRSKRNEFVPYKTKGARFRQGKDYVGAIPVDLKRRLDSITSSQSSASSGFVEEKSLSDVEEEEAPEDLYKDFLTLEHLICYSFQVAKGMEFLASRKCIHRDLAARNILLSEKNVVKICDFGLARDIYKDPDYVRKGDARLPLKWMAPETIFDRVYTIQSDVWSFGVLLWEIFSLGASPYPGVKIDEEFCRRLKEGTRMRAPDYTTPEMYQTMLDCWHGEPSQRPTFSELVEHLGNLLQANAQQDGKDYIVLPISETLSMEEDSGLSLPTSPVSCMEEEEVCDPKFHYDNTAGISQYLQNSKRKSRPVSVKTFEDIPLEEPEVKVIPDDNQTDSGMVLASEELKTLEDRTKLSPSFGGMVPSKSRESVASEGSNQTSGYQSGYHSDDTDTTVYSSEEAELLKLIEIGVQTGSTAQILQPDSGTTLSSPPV

Kit = Kit (Homo sapiens, UniProt P10721); assay: Kinase activity assay, Kit
C-Raf = C-Raf (Homo sapiens, UniProt P04049); assay: Kinase activity assay, C-Raf
Chain of C-Raf (P04049 whole entry): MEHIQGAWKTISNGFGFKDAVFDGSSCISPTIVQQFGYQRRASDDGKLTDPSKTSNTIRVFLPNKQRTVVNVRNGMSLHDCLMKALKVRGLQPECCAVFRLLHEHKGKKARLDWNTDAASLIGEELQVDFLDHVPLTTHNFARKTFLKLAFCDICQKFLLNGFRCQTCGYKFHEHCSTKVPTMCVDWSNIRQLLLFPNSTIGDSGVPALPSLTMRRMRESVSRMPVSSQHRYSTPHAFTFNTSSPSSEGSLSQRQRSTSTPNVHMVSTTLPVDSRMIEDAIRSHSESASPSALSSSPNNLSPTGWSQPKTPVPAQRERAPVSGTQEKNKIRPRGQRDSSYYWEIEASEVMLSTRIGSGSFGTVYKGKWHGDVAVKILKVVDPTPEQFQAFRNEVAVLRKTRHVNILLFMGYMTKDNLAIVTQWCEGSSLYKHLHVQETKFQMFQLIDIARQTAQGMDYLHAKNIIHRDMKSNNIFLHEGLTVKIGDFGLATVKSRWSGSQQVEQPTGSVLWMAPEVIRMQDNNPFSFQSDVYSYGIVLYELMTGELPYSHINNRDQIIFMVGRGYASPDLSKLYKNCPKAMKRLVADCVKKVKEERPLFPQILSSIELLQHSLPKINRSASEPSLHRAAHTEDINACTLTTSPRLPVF

MAP4K4 = MAP4K4 (Homo sapiens, UniProt O95819); assay: Kinase activity assay, MAP4K4
Chain of MAP4K4 (O95819 whole entry): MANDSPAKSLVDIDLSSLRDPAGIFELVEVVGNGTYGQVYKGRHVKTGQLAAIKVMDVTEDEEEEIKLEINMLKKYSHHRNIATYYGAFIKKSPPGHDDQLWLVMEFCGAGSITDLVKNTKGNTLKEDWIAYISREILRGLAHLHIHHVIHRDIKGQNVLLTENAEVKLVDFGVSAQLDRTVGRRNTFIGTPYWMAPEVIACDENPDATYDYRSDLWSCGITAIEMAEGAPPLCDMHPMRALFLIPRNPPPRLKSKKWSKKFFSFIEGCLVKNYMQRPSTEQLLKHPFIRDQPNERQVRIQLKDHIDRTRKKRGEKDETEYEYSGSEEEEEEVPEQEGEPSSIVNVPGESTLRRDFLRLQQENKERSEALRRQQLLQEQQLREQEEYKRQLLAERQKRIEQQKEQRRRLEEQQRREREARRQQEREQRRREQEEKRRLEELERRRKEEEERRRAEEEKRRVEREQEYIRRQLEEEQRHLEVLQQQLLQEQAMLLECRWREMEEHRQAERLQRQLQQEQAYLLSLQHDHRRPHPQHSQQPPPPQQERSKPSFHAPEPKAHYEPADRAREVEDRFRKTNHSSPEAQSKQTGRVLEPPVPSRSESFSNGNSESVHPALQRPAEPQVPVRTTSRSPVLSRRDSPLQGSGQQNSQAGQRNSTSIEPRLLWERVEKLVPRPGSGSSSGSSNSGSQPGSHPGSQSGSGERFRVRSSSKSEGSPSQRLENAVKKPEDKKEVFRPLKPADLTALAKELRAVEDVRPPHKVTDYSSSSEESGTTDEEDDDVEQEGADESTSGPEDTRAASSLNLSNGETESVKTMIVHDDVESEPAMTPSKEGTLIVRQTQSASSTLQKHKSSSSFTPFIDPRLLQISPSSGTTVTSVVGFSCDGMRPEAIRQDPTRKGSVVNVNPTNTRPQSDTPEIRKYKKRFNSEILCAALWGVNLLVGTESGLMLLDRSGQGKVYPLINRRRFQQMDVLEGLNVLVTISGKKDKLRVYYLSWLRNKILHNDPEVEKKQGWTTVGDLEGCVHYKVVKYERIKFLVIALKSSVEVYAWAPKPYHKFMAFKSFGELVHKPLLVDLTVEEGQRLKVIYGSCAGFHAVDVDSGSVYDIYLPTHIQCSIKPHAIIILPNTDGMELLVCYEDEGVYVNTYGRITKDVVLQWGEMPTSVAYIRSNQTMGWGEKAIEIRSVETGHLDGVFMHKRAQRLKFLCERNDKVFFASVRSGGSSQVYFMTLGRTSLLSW

Src = Src (Homo sapiens, UniProt P12931); assay: Kinase activity assay, Src

Measured: IC50

Chain of B-Raf (P15056 whole entry): as the sequence (P15056 whole entry V600E) above, with E600V counted along it

O=C(CCCCC1SCC2NC(=O)NC21)NCCCCCNC(=O)CCc1cnc2[nH]cc(C(=O)c3c(F)ccc(NS(=O)(=O)c4ccc(C(F)(F)F)cc4)c3F)c2c1 (stereo not shown) [P-2008, 5-(2-Oxo-hexahydro-thieno[3,4-d]imidazol-6-yl)-pentanoic acid [5-(3-{3-[2,6-difluoro-3-(4-trifluoromethyl-benzenesulfonylamino)-benzoyl]-1H-pyrrolo[2,3-b]pyridin-5-yl}-propionylamino)-pentyl]-amide]
not listed: Src
≤ 10 µM: all other assays above

Cc1cnc2[nH]cc(C(=O)c3c(F)ccc(NS(=O)(=O)c4ccc(F)cc4F)c3F)c2c1 [P-2025, N-[2,4-Difluoro-3-(5-methyl-1H-pyrrolo[2,3-b]pyridine-3-carbonyl)-phenyl]-2,4-difluoro-benzenesulfonamide]
not listed: Fms
≤ 10 µM: all other assays above

O=C(c1c(F)ccc(NS(=O)(=O)c2ccc(F)cc2)c1F)c1c[nH]c2nccc(Cl)c12 [P-2026, N-[3-(4-Chloro-1H-pyrrolo[2,3-b]pyridine-3-carbonyl)-2,4-difluoro-phenyl]-4-fluoro-benzenesulfonamide]
not listed: Fms
≤ 10 µM: all other assays above

O=C(c1c(F)ccc(NS(=O)(=O)c2c(F)cccc2F)c1F)c1c[nH]c2nccc(Cl)c12 [P-2033, N-[3-(4-Chloro-1H-pyrrolo[2,3-b]pyridine-3-carbonyl)-2,4-difluoro-phenyl]-2,6-difluoro-benzenesulfonamide]
not listed: Fms
≤ 10 µM: all other assays above

O=C(c1c(F)ccc(NS(=O)(=O)c2ccc(F)cc2F)c1F)c1c[nH]c2nccc(Cl)c12 [P-2034, N-[3-(4-Chloro-1H-pyrrolo[2,3-b]pyridine-3-carbonyl)-2,4-difluoro-phenyl]-2,4-difluoro-benzenesulfonamide]
not listed: Fms
≤ 10 µM: all other assays above

O=C(c1c(F)ccc(NS(=O)(=O)c2cccnc2)c1F)c1c[nH]c2nccc(Cl)c12 [P-2074, Pyridine-3-sulfonic acid [3-(4-chloro-1H-pyrrolo[2,3-b]pyridine-3-carbonyl)-2,4-difluoro-phenyl]-amide]
≤ 10 µM: Src | MAP4K4

Cc1cnc2[nH]cc(C(=O)c3cccc(NS(=O)(=O)c4cccnc4)c3)c2c1 [P-2141, Pyridine-3-sulfonic acid [3-(5-methyl-1H-pyrrolo[2,3-b]pyridine-3-carbonyl)-phenyl]-amide]
≤ 10 µM: Fms | Kdr | Kit | MAP4K4

O=C(c1cccc(NS(=O)(=O)c2cccnc2)c1)c1c[nH]c2ncc(F)cc12 [P-2143, Pyridine-3-sulfonic acid [3-(5-fluoro-1H-pyrrolo[2,3-b]pyridine-3-carbonyl)-phenyl]-amide]
≤ 10 µM: Fms | Kdr | C-Raf | MAP4K4

O=C(c1cccc(NS(=O)(=O)c2cccnc2)c1)c1c[nH]c2ncc(Cl)cc12 [P-2146, Pyridine-3-sulfonic acid [3-(5-chloro-1H-pyrrolo[2,3-b]pyridine-3-carbonyl)-phenyl]-amide]
≤ 10 µM: Kdr | MAP4K4

CCCS(=O)(=O)Nc1ccc(F)c(C(=O)c2c[nH]c3ncc(-c4cnc(N5CCCC5)nc4)cc23)c1F [P-2219, Propane-1-sulfonic acid {2,4-difluoro-3-[5-(2-pyrrolidin-1-yl-pyrimidin-5-yl)-1H-pyrrolo[2,3-b]pyridine-3-carbonyl]-phenyl}-amide]
not listed: Fms | Kit
≤ 10 µM: all other assays above

CCCS(=O)(=O)Nc1ccc(F)c(C(=O)c2c[nH]c3ncc(-c4ccc(S(=O)(=O)NCCO)cc4)cc23)c1F [P-2221, 4-{3-[2,6-Difluoro-3-(propane-1-sulfonylamino)-benzoyl]-1H-pyrrolo[2,3-b]pyridin-5-yl}-N-(2-hydroxy-ethyl)-benzenesulfonamide]
≤ 10 µM: Fms | Kdr | Kit | MAP4K4

CCCS(=O)(=O)Nc1ccc(F)c(C(=O)c2c[nH]c3ncc(-c4ccc(S(=O)(=O)C(C)C)cc4)cc23)c1F [P-2223, Propane-1-sulfonic acid (2,4-difluoro-3-{5-[4-(propane-2-sulfonyl)-phenyl]-1H-pyrrolo[2,3-b]pyridine-3-carbonyl}-phenyl)-amide]
not listed: Fms
≤ 10 µM: all other assays above

CCS(=O)(=O)Nc1ccc(F)c(C(=O)c2c[nH]c3ncc(-c4ccc(Cl)cc4)cc23)c1F [P-2269, Ethanesulfonic acid {3-[5-(4-chloro-phenyl)-1H-pyrrolo[2,3-b]pyridine-3-carbonyl]-2,4-difluoro-phenyl}-amide]
≤ 10 µM: Kdr | MAP4K4

CCS(=O)(=O)Nc1ccc(F)c(C(=O)c2c[nH]c3nccc(OC)c23)c1F [P-2279, Ethanesulfonic acid [2,4-difluoro-3-(4-methoxy-1H-pyrrolo[2,3-b]pyridine-3-carbonyl)-phenyl]-amide]
≤ 10 µM: B-Raf | B-Raf V600E | Kdr | C-Raf | MAP4K4

Cc1cnc2[nH]cc(C(=O)c3c(F)ccc(NS(=O)(=O)C4CCCCC4)c3F)c2c1 [P-2360, Cyclohexanesulfonic acid [2,4-difluoro-3-(5-methyl-1H-pyrrolo[2,3-b]pyridine-3-carbonyl)-phenyl]-amide]
not listed: Fms
≤ 10 µM: all other assays above

O=C(c1cccc(NS(=O)(=O)C2CCCCC2)c1)c1c[nH]c2ncc(Cl)cc12 [P-2452, Cyclohexanesulfonic acid [3-(5-chloro-1H-pyrrolo[2,3-b]pyridine-3-carbonyl)-phenyl]-amide]
≤ 10 µM: B-Raf V600E | Fms | Kdr | Kit | MAP4K4

O=C(c1cccc(NS(=O)(=O)C2CCCC2)c1)c1c[nH]c2ncc(Cl)cc12 [P-2453, Cyclopentanesulfonic acid [3-(5-chloro-1H-pyrrolo[2,3-b]pyridine-3-carbonyl)-phenyl]-amide]
≤ 10 µM: B-Raf V600E | Fms | Kdr | Kit | MAP4K4

Cc1cnc2[nH]cc(C(=O)c3cccc(NS(=O)(=O)C4CCCCC4)c3)c2c1 [P-2458, Cyclohexanesulfonic acid [3-(5-methyl-1H-pyrrolo[2,3-b]pyridine-3-carbonyl)-phenyl]-amide]
≤ 10 µM: Fms | Kdr | Kit | MAP4K4

Cc1cnc2[nH]cc(C(=O)c3cccc(NS(=O)(=O)C4CCCC4)c3)c2c1 [P-2459, Cyclopentanesulfonic acid [3-(5-methyl-1H-pyrrolo[2,3-b]pyridine-3-carbonyl)-phenyl]-amide]
≤ 10 µM: Kdr | Kit | MAP4K4

O=C(O)CCc1cccc(-c2cnc3[nH]cc(C(=O)c4cccc(NS(=O)(=O)C5CCCC5)c4)c3c2)c1 [P-2466, 3-{3-[3-(3-Cyclopentanesulfonylamino-benzoyl)-1H-pyrrolo[2,3-b]pyridin-5-yl]-phenyl}-propionic acid]
≤ 10 µM: B-Raf V600E | Kdr | Kit | Src | MAP4K4
